Where “and” joins values, the source holds several entries; their conditions need not be identical. Equal values may be shown once. Inconclusive results and toxic doses are left out.
Test system: nude mice, LOX melanoma ip, survival T/C
Assay: NCI In Vivo Anticancer Drug Screen. Data for tumor model Human Amelanotic Melanoma (LOX) (intraperitoneal) in NU/NU BALB/C (nude) mice
Conditions: endpoint: median survival time, higher = longer survival
Procedure: The antitumor activity of compounds was measured in mice bearing transplantable tumors. Survival or tumor size were measured and the results are expressed as the measurement made in the treated group (T) divided by the measurement made in the vehicle treated control group (C). The tumor model used in this assay is Human Amelanotic Melanoma (LOX) (intraperitoneal) in NU/NU BALB/C (nude) mice

CN(Cc1cnc2nc(N)nc(N)c2n1)c1ccc(C(=O)N[C@@H](CCC(=O)O)C(=O)O)cc1
T/C (dose: 0.38 mg/kg/injection, schedule: Q01DX015 (ip), vehicle: sodium bicarbonate): 90 % of control
T/C (dose: 0.75 mg/kg/injection, schedule: Q01DX005 (ip), vehicle: sodium bicarbonate): 90 % of control
T/C (dose: 1.5 mg/kg/injection, schedule: Q01DX005 (ip), vehicle: sodium bicarbonate): 113 % of control
T/C (dose: 1.5 mg/kg/injection, schedule: Q01DX015 (ip), vehicle: sodium bicarbonate): 95 % of control
T/C (dose: 3.0 mg/kg/injection, schedule: Q01DX005 (ip), vehicle: sodium bicarbonate): 112 % of control
T/C (dose: 3.0 mg/kg/injection, schedule: Q01DX015 (ip), vehicle: sodium bicarbonate): 102 % of control
T/C (dose: 6.0 mg/kg/injection, schedule: Q01DX005 (ip), vehicle: sodium bicarbonate): 112 % of control
T/C (dose: 10.0 mg/kg/injection, schedule: Q04DX003 (ip), vehicle: sodium bicarbonate): 107 % of control
T/C (dose: 12.0 mg/kg/injection, schedule: Q01DX005 (ip), vehicle: sodium bicarbonate): 107 % of control
T/C (dose: 12.0 mg/kg/injection, schedule: Q04DX003 (ip), vehicle: sodium bicarbonate): 105 % of control and 112 % of control
T/C (dose: 18.0 mg/kg/injection, schedule: Q04DX003 (ip), vehicle: sodium bicarbonate): 103 % of control and 101 % of control
T/C (dose: 20.0 mg/kg/injection, schedule: Q04DX003 (ip), vehicle: sodium bicarbonate): 102 % of control
T/C (dose: 25.0 mg/kg/injection, schedule: Q01DX001 (ip), vehicle: sodium bicarbonate): 107 % of control
T/C (dose: 27.0 mg/kg/injection, schedule: Q04DX003 (ip), vehicle: sodium bicarbonate): 105 % of control and 112 % of control
T/C (dose: 40.0 mg/kg/injection, schedule: Q04DX003 (ip), vehicle: sodium bicarbonate): 113 % of control
T/C (dose: 50.0 mg/kg/injection, schedule: Q01DX001 (ip), vehicle: sodium bicarbonate): 106 % of control
T/C (dose: 100.0 mg/kg/injection, schedule: Q01DX001 (ip), vehicle: sodium bicarbonate): 103 % of control
T/C (dose: 200.0 mg/kg/injection, schedule: Q01DX001 (ip), vehicle: sodium bicarbonate): 121 % of control

N=C1CCCS1
T/C (dose: 10.0 mg/kg/injection, schedule: Q04DX003 (ip), vehicle: saline): 114 % of control
T/C (dose: 20.0 mg/kg/injection, schedule: Q04DX003 (ip), vehicle: saline): 96 % of control
T/C (dose: 40.0 mg/kg/injection, schedule: Q04DX003 (ip), vehicle: saline): 102 % of control
T/C (dose: 80.0 mg/kg/injection, schedule: Q04DX003 (ip), vehicle: saline): 113 % of control
T/C (dose: 160.0 mg/kg/injection, schedule: Q04DX003 (ip), vehicle: saline): 116 % of control

N#Cc1c(N)[nH]c2ccc(Sc3ccccc3)cc12
T/C (dose: 15.0 mg/kg/injection, schedule: Q04DX003 (ip), vehicle: saline with Tween-80): 99 % of control
T/C (dose: 30.0 mg/kg/injection, schedule: Q04DX003 (ip), vehicle: saline with Tween-80): 89 % of control
T/C (dose: 60.0 mg/kg/injection, schedule: Q04DX003 (ip), vehicle: saline with Tween-80): 94 % of control
T/C (dose: 120.0 mg/kg/injection, schedule: Q04DX003 (ip), vehicle: saline with Tween-80): 104 % of control
T/C (dose: 240.0 mg/kg/injection, schedule: Q04DX003 (ip), vehicle: saline with Tween-80): 124 % of control

O=NNc1ccc(Cl)cn1
T/C (dose: 2.5 mg/kg/injection, schedule: Q04DX003 (ip), vehicle: water): 105 % of control
T/C (dose: 3.13 mg/kg/injection, schedule: Q04DX003 (ip), vehicle: water): 111 % of control
T/C (dose: 5.0 mg/kg/injection, schedule: Q04DX003 (ip), vehicle: water): 101 % of control
T/C (dose: 6.25 mg/kg/injection, schedule: Q04DX003 (ip), vehicle: water): 112 % of control
T/C (dose: 10.0 mg/kg/injection, schedule: Q04DX003 (ip), vehicle: water): 118 % of control
T/C (dose: 20.0 mg/kg/injection, schedule: Q04DX003 (ip), vehicle: water): 124 % of control

c1ccc2c3c(c4c(c2c1)CN(C1CCCCC1)CO4)OCN(C1CCCCC1)C3
T/C (dose: 18.75 mg/kg/injection, schedule: Q04DX003 (ip), vehicle: water): 102 % of control
T/C (dose: 37.5 mg/kg/injection, schedule: Q04DX003 (ip), vehicle: water): 107 % of control
T/C (dose: 75.0 mg/kg/injection, schedule: Q04DX003 (ip), vehicle: water): 123 % of control

O=C(/C=C/c1ccccc1)c1ccccc(=O)c1O
T/C (dose: 6.85 mg/kg/injection, schedule: Q04DX003 (ip), vehicle: Klucel (hydroxypropylcellulose) (HPC)): 100 % of control
T/C (dose: 13.7 mg/kg/injection, schedule: Q04DX003 (ip), vehicle: Klucel (hydroxypropylcellulose) (HPC)): 97 % of control
T/C (dose: 27.5 mg/kg/injection, schedule: Q04DX003 (ip), vehicle: Klucel (hydroxypropylcellulose) (HPC)): 104 % of control
T/C (dose: 55.0 mg/kg/injection, schedule: Q04DX003 (ip), vehicle: Klucel (hydroxypropylcellulose) (HPC)): 108 % of control
T/C (dose: 110.0 mg/kg/injection, schedule: Q04DX003 (ip), vehicle: Klucel (hydroxypropylcellulose) (HPC)): 94 % of control

CN(C)CCCN=c1c2ccccc2n(C)c2[nH]c(=O)n(C)c(=O)c12
T/C (dose: 12.5 mg/kg/injection, schedule: Q04DX003 (ip), vehicle: saline): 112 % of control
T/C (dose: 50.0 mg/kg/injection, schedule: Q04DX003 (ip), vehicle: saline): 107 % of control

NC(CNC(=O)CBr)C(=O)O (configuration not stated)
T/C (dose: 12.5 mg/kg/injection, schedule: Q04DX003 (ip), vehicle: water): 97 % of control
T/C (dose: 25.0 mg/kg/injection, schedule: Q04DX003 (ip), vehicle: water): 93 % of control
T/C (dose: 50.0 mg/kg/injection, schedule: Q04DX003 (ip), vehicle: water): 98 % of control
T/C (dose: 100.0 mg/kg/injection, schedule: Q04DX003 (ip), vehicle: water): 90 % of control
T/C (dose: 200.0 mg/kg/injection, schedule: Q04DX003 (ip), vehicle: water): 88 % of control

COc1ccc2c(c1)-c1nn(CCCN(C)C)c3ccc([N+](=O)[O-])c(c13)N2
T/C (dose: 5.8 mg/kg/injection, schedule: Q04HX006 (ip), vehicle: water): 116 % of control
T/C (dose: 8.8 mg/kg/injection, schedule: Q04HX006 (ip), vehicle: water): 119 % of control
T/C (dose: 13.3 mg/kg/injection, schedule: Q04DX003 (ip), vehicle: water): 117 % of control
T/C (dose: 13.3 mg/kg/injection, schedule: Q04HX006 (ip), vehicle: water): 123 % of control and 96 % of control
T/C (dose: 19.8 mg/kg/injection, schedule: Q04DX003 (ip), vehicle: water): 113 % of control
T/C (dose: 19.8 mg/kg/injection, schedule: Q04HX006 (ip), vehicle: water): 123 % of control
T/C (dose: 21.0 mg/kg/injection, schedule: Q04DX003 (ip), vehicle: water): 107 % of control
T/C (dose: 21.6 mg/kg/injection, schedule: Q04DX003 (ip), vehicle: water): 103 % of control
T/C (dose: 29.7 mg/kg/injection, schedule: Q04DX003 (ip), vehicle: water): 114 % of control
T/C (dose: 29.7 mg/kg/injection, schedule: Q04HX006 (ip), vehicle: water): 123 % of control
T/C (dose: 36.0 mg/kg/injection, schedule: Q04DX003 (ip), vehicle: water): 114 % of control and 93 % of control
T/C (dose: 44.5 mg/kg/injection, schedule: Q04DX003 (ip), vehicle: water): 114 % of control and 117 % of control
T/C (dose: 44.5 mg/kg/injection, schedule: Q04HX006 (ip), vehicle: water): 122 % of control
T/C (dose: 60.0 mg/kg/injection, schedule: Q04DX003 (ip), vehicle: water): 109 % of control and 114 % of control
T/C (dose: 66.7 mg/kg/injection, schedule: Q04DX003 (ip), vehicle: water): 118 % of control

CN(C)C(=O)Nc1ccc(Cl)cc1
T/C (dose: 75.0 mg/kg/injection, schedule: Q04DX003 (ip), vehicle: suspension in saline): 118 % of control
T/C (dose: 150.0 mg/kg/injection, schedule: Q04DX003 (ip), vehicle: suspension in saline): 102 % of control
T/C (dose: 300.0 mg/kg/injection, schedule: Q04DX003 (ip), vehicle: suspension in saline): 102 % of control
T/C (dose: 600.0 mg/kg/injection, schedule: Q04DX003 (ip), vehicle: suspension in saline): 102 % of control

N/C(=N\OC(=O)Nc1ccc(CSc2ccc(Cl)cc2)o1)c1ccccn1
T/C (dose: 18.75 mg/kg/injection, schedule: Q04DX003 (ip), vehicle: Klucel (hydroxypropylcellulose) (HPC)): 97 % of control
T/C (dose: 37.5 mg/kg/injection, schedule: Q04DX003 (ip), vehicle: Klucel (hydroxypropylcellulose) (HPC)): 97 % of control
T/C (dose: 75.0 mg/kg/injection, schedule: Q04DX003 (ip), vehicle: Klucel (hydroxypropylcellulose) (HPC)): 92 % of control
T/C (dose: 150.0 mg/kg/injection, schedule: Q04DX003 (ip), vehicle: Klucel (hydroxypropylcellulose) (HPC)): 102 % of control

CC(/C=C/C=C/C=C/C=C/C=C/C(O)=C1/C(=O)C(CCC(=O)O)N(C)C1=O)=C\C(C)C(OC1CC(O)C(O)C(C)O1)C(C)C (configuration not stated)
T/C (dose: 8.3 mg/kg/injection, schedule: Q04DX003 (ip), vehicle: water): 114 % of control
T/C (dose: 13.8 mg/kg/injection, schedule: Q04DX003 (ip), vehicle: water): 114 % of control
T/C (dose: 16.0 mg/kg/injection, schedule: Q04DX003 (ip), vehicle: water): 150 % of control
T/C (dose: 32.0 mg/kg/injection, schedule: Q04DX003 (ip), vehicle: water): 168 % of control
T/C (dose: 107.0 mg/kg/injection, schedule: Q04DX003 (ip), vehicle: water): 116 % of control

From PubChem BioAssay AID280 (DTP/NCI, 2004)
